Measurements from patent EP2435019B1, “DODECA-2E,4E-DIENE AMIDES AND THEIR USE AS MEDICAMENTS AND COSMETICS” (Dr. August Wolff GmbH & Co. KG Arzneimittel, priority 2009, dated 2010).
Read-outs that look alike come from different tables or passages of the source.

Tests used:
[1] = target: T1, CB1 (Homo sapiens, UniProt P21554); assay: Radioligand displacement assay on CB1 receptor; format: binding
T1 construct: purchased Perkin Elmer RBHCB1M

[2] = Critical micelle concentration (CMC) measurement, dye micellization; format: physicochemical; settings: fluorescein dye micellization in water, pH 6.9, room temperature
[3] = tested on: Arachidonoylethanolamide Transport (AEAT); assay: Cellular uptake of [3H]-AEA in U937 cells (assay C); format: cell-based, Human; settings: Homo sapiens, U-937, read-out: EC50 value, AEA re-uptake inhibition
Protocol: 5x10^5 cells were collected and suspended in 500 µL of sterile PBS (Sigma, San Louis, MO, US) using glass silanized tubes. Cells were pre-incubated 10 min at 37°C in presence of test compounds in a concentration range of 10^-8 - 10^-4 M or in presence of the same amount of solvent (control). Then a mixture of 50 nM [^3H]-AEA (60 Ci/mmol) (American Radiolabeled Chemicals, Inc., San Louis, MO, US) and 50 nM of nonradioactive AEA (Tocris Cookson Ltd., Bristol, UK) was added and samples were incubated at 37°C for different times in the range of 1-60 min. The reaction was stopped by rapid filtration over Whatman GF/C filters pre-soaked in 0,25 % BSA. […] The filters-bound radioactivity was measured using a Beckman LS6500 scintillation counter. Results were expressed as % of AEA uptake versus cells treated with solvent and the EC50 and IC50 values were calculated from the sigmoidal curves, which were generated using the GraphPad Prism (GraphPad Software, San Diego, CA, US).

[4] = tested on: Anandamide transport; assay: Anandamide transport (human) cellular functional assay (assay F); format: cell-based; settings: human U-937 cells, 0.1 µM [3H]-Anandamide, 20 min (assay F)
Protocol: Anandamide transport is determined using human U-937 cells as receptor source. [3H]-Anandamide (0.1 Ci/mmol), final concentration 0.1 µM is used as substrate. AM-404 is used as reference compound. Reactions are carried out in KRH buffer (pH 7.4) at 37°C for 20 min. The reaction is terminated by rapid vacuum filtration onto glass fiber filters. Radioactivity trapped onto filters is determined and compared to control values in order to ascertain any interactions of test compound with anandamide uptake (Hiiliard C.J. The movement of N-arachidonylethanolamide (anandamide) across cellular membranes. Chem. Physics Lipids. 2008;108:123-134, with modifications).

[5] = tested on: TNF-alpha release; assay: LPS-induced TNF-alpha release from human macrophages (ELISA); format: cell-based; settings: Figure 4; LPS 500 ng/ml; 5 µM for 18 h
Protocol: • Figure 1: AEA re-uptake inhibition of 2E,4E-dieneamides 1 and 9 into human primary monocytes and U937 cells. […] Data are mean values ± SEM of 3 independent experiments in a sigmoidal dose-response curve. • Figure 2: Concentration-dependent effects of 4 and 5 on FAAH activity. […] The maximal inhibition (32%) of 5 was measured at 1 µM. Data are mean values ± SEM of 3 independent experiments. • Figure 3: Effects of low nM concentrations of N-alkylamide 7 on FAAH activity alone and in combination with the FAAH inhibitor URB597. […] Data are mean values ± SEM of 3 independent experiments. • Figure 4: 1 and 9 inhibit LPS-induced TNF-alpha release into culture medium (measured by ELISA). Human macrophages (10^6 cells) were stimulated with LPS (500 ng/ml) and treated with UCM707 and/or compounds 1 and 9 at 5 µM for 18 h. N = 3 ± SEM. • Figure 5: UCM707 (positive control) and compounds 1 and 9 diminish NO2^- production. Human macrophages (10^6 cells) were stimulated with LPS (500 ng/ml) and treated with UCM707 and/or compounds 1 and 9 at 5 µM for 18 h. Culture supernatants were assayed for nitrite levels, using the Griess reagent as a reflection of NO production. […]

[6] = target: CB2 (Homo sapiens, UniProt P34972); assay: Radioligand displacement assay on CB2 receptor; format: binding; set-up: purchased Perkin Elmer RBXCB2M
Sequence of CB2 (P34972 whole entry): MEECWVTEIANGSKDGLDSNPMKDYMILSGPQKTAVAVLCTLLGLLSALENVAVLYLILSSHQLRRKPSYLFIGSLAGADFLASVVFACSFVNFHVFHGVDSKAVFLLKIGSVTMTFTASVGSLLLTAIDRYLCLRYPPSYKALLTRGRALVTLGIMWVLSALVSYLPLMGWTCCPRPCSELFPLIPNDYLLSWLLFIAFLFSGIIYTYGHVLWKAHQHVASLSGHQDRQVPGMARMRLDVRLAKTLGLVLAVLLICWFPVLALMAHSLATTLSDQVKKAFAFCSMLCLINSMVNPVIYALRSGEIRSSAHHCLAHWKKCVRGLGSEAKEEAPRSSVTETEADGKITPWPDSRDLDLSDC

T1 sequence (P21554 whole entry): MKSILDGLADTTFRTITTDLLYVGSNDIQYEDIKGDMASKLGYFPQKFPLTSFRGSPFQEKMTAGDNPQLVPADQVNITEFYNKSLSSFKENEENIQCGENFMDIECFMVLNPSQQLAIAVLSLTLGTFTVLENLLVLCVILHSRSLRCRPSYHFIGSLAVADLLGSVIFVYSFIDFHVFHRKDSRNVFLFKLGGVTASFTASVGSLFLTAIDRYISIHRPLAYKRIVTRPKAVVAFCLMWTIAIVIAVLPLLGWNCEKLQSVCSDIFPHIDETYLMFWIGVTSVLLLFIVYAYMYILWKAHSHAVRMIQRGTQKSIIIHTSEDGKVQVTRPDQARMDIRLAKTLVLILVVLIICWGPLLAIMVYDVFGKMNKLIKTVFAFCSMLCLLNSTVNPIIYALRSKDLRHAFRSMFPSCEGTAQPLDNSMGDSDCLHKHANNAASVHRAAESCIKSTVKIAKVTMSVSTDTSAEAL

Row | Structure (SMILES) | Ki [1] | CMC [2] | EC50 [3] | AEAT inhibition at 1 µM [4] | LPS-induced TNF-alpha release into culture medium [5] | Ki ([6]; displacement of 0.11 nM [3H]CP55,940, membrane recombinantly over-expressing CB2, read-out: Receptor affinity Ki CB2) | Ki [6]
1 | CCCCCCC/C=C/C=C/C(=O)NCCc1cccc(OC)c1 [Example 9, (2E,4E)-N-(3-methoxyphenethyl)dodeca-2,4-diene amide] | > 20 µM | >5 µM | 0.869 ± 0.172 µM | 34 % of control | inhibit | 9.44 ± 0.889 µM | –
2 | CCCCCCC/C=C/C=C/C(=O)NCCO [Example 1, (2E,4E)-N-(2-hydroxyethyl)dodeca-2,4-diene amide] | > 20 µM | >10 µM | 1.23 ± 0.305 µM | 28 % of control | inhibit | – | > 20 µM
